This is an account of results in article PMC11641365, “Evaluation of In Vitro Biological Activity of Flavanone/Chromanone Derivatives: Molecular Analysis of Anticancer Mechanisms in Colorectal Cancer” (International Journal of Molecular Sciences, 2024).

What all share (assay type): cell-based, human
Test [1] deals with colon cancer cells. Nature of the test: Reactive nitrogen species level, DAF-FM probe, all tested cell lines. The note with it: any of the tested cell lines, compound at IC50, 24 h. The protocol:
Diaminofluorescein-FM diacetate (DAF-FM diacetate, Invitrogen, Carlsbad, CA, USA), a cell-permeable fluorescent probe, is widely utilized for the detection and quantification of reactive nitrogen species (RNS), primarily nitric oxide (NO). […] Upon interaction with NO, however, it undergoes a chemical transformation resulting in the formation of a highly fluorescent benzotriazole derivative with excitation and emission maxima at 495 and 515 nm, respectively.
Cells were seeded in black 96-well fluorometric microplates at a density of 10 × 10^3 cells/mL. […] Following compound incubation, the medium was removed, and the cell monolayers were washed twice with HBSS (140 mM NaCl, 5 mM KCl, 0.8 mM MgCl2, 1.8 mM CaCl2, 1 mM Na2HPO4, 10 mM HEPES, and 1% glucose). […] Fluorescence measurements were conducted using a Perkin-Elmer LS-5B spectrofluorometer (MA, USA) at the following excitation and fluorescence emission wavelengths: λex = 495 nm/λem = 515 nm. The fluorescence intensity of control cells was arbitrarily assigned a value of 100%. The results were expressed as percentages of control, calculated by comparing the fluorescence intensity ratio of the test samples to controls (100%). The fluorescence of samples was denoted as Δf in relation to the control.

The subject of test [2] is SW620. Nature of the test: Alkaline comet assay (DNA damage). The following applies: compound at IC50, 12 h, vs control group. From the text: Single-cell gel electrophoresis, also known as the comet assay, is a rapid and sensitive method for assessing DNA damage at the single-cell level. Cells are lysed and electrophoresed. Both single-strand and double-strand breaks are detected under alkaline conditions. The released DNA is denatured and moves in the agarose gel toward the anode during electrophoresis. The image, obtained after staining with the fluorescent dye 4′,6-diamidino-2-phenylindole (DAPI), resembles a “comet” with a distinct “head” (intact DNA) and “tail” (damaged DNA fragments). The length of the tail depends on the number and size of the broken DNA strands.
Cells (1 × 10^3) were seeded in 35 mm dishes and cultured in the medium for 24 h to attain the logarithmic growth phase. […] Quantitative analysis of the DNA comet image of preparations stained with DAPI solution (2 μg/L) was performed using a camera connected to a fluorescence microscope. The comet DNA analysis was performed under a Nikon Eclipse fluorescence microscope (Nikon, Tokyo, Japan) equipped with a 4910 COHU video camera (Cohu, Inc., San Diego, CA, USA) and a computer with Lucia-Comet v. […] Each time, from each preparation, 100 randomly selected comets were counted. The extent of DNA damage is quantified by measuring the length of the comet tail and the amount of DNA it contains. […]

Test [3] deals with Caco-2. Nature of the test: Intracellular GSH level, monochlorobimane (MCB) probe. The note with it: compound at IC50, 24 h, vs control. The procedure: The spectrofluorimetric method with monochlorobimane (MCB; Sigma-Aldrich; St. Louis, MO, USA) was used to determine GSH. Monochlorobimane reacts with glutathione in a reaction catalyzed by cellular glutathione S-transferase. The reaction produces a fluorescent bimane-glutathione conjugate (GSH-MCB). A major advantage of MCB is its ability to penetrate the cell membrane, which is why it is used as a probe to determine the amount of GSH in living cells.
Cells were seeded in black 96-well fluorometric microplates at a density of 10 × 10^3 cells/mL. […] Following compound incubation, the medium was removed, and the cell monolayers were washed twice with HBSS (140 mM NaCl, 5 mM KCl, 0.8 mM MgCl2, 1.8 mM CaCl2, 1 mM Na2HPO4, 10 mM HEPES, and 1% glucose). A solution of MCB at a final concentration of 40 μM was added to each well and incubated in a CO2 cell culture incubator at 37 °C for 20 min. A 40 mM MCB stock solution was prepared by dissolving 9 mg of the reagent in 1 mL of absolute ethanol. Fluorescence was measured using a Perkin-Elmer LS-5B spectrofluorometer (Waltham, MA, USA) at the following excitation and fluorescence emission wavelengths: λex = 380 nm/λem = 470 nm. After incubation with MCB, the cells were lysed with 50 μL of lysis buffer (10 mM TRIS-HCl; pH 8 containing 0.1% Triton X-100). In order to normalize the number of cells in individual samples, the amount of DNA was determined by adding 50 μL of ethidium bromide (EB, final concentration 0.2 mM) to each well after measuring the MCB fluorescence and measuring the EB fluorescence at an excitation wavelength of λex = 530 nm and an emission wavelength of λem = 590 nm. The results obtained using the standard curve were converted to nM of GSH.

As to `COc1cccc(/C=C2/C(=O)c3ccccc3OC2c2ccccc2)c1` (stereo not shown) [Compound 3], the “Change in RNS levels” value in test [1] is reported as “no significant changes”. For the same compound, the “Increase in DNA content in the comet tail” value in test [2] was “approximately 40%”.

As for `O=C1/C(=C/c2ccccc2)C(c2ccccc2)Oc2ccccc21` (stereo not shown) [Compound 5], the “Change in RNS levels” value in test [1] is recorded as “no significant changes”.

On to `O=C1/C(=C/c2ccccc2)COc2ccccc21` [Compound 1], for which, in test [3], the “Decrease in GSH levels” value was 25–30%.
